Measured values from PubChem BioAssay AID1963961 (Molecular Pharmacology Branch, DTP, NCI, 2024).

Test system: K98450-129-R-PDC multicell spheroids, viability
Experiment: Anticancer human tumor K98450-129-R-PDC patient-derived colon adenocarcinoma cell line growth inhibition [PI3K]
Conditions: for viability, T/C: stronger effect = lower value; active = viability on the fitted dose curve at most 10% of control; inactive = the rest
Summary of the method: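 Multi-cell spheroids combine tumor cells with HUVEC and human MSCs, treated with targeted agents alone or with inavolisib, alpelisib, duvelisib or copanlisib. Concentrations fall in half-log steps from at or near clinical Cmax, or from 10 microM where Cmax is unknown; viability read-out.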

[1] = curve of first compound, second compound 0.00316 µM
[2] = curve of first compound, second compound 0.01 µM
[3] = curve of first compound, second compound 0.0316 µM
[4] = curve of first compound, second compound 0.1 µM
[5] = curve of first compound, second compound 0.316 µM
[6] = curve of first compound, second compound 1 µM
[7] = second compound 0.00316 µM, first compound 0.0316 µM
[8] = second compound 0.00316 µM, first compound 0.1 µM
[9] = second compound 0.00316 µM, first compound 0.316 µM
[10] = second compound 0.00316 µM, first compound 1 µM
[11] = second compound 0.00316 µM, first compound 3.16 µM
[12] = second compound 0.00316 µM, first compound 10 µM
[13] = second compound 0.01 µM, first compound 0.0316 µM
[14] = second compound 0.01 µM, first compound 0.1 µM
[15] = second compound 0.01 µM, first compound 0.316 µM
[16] = second compound 0.01 µM, first compound 1 µM
[17] = second compound 0.01 µM, first compound 3.16 µM
[18] = second compound 0.01 µM, first compound 10 µM
[19] = second compound 0.0316 µM, first compound 0.0316 µM
[20] = second compound 0.0316 µM, first compound 0.1 µM
[21] = second compound 0.0316 µM, first compound 0.316 µM
[22] = second compound 0.0316 µM, first compound 1 µM
[23] = second compound 0.0316 µM, first compound 3.16 µM
[24] = second compound 0.0316 µM, first compound 10 µM
[25] = second compound 0.1 µM, first compound 0.0316 µM
[26] = second compound 0.1 µM, first compound 0.1 µM
[27] = second compound 0.1 µM, first compound 0.316 µM
[28] = second compound 0.1 µM, first compound 1 µM
[29] = second compound 0.1 µM, first compound 3.16 µM
[30] = second compound 0.1 µM, first compound 10 µM
[31] = second compound 0.316 µM, first compound 0.0316 µM
[32] = second compound 0.316 µM, first compound 0.1 µM
[33] = second compound 0.316 µM, first compound 0.316 µM
[34] = second compound 0.316 µM, first compound 1 µM
[35] = second compound 0.316 µM, first compound 3.16 µM
[36] = second compound 0.316 µM, first compound 10 µM
[37] = second compound 1 µM, first compound 0.0316 µM
[38] = second compound 1 µM, first compound 0.1 µM
[39] = second compound 1 µM, first compound 0.316 µM
[40] = second compound 1 µM, first compound 1 µM
[41] = second compound 1 µM, first compound 3.16 µM
[42] = second compound 1 µM, first compound 10 µM
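Note: spheroids exposed to agents for seven days before read-out.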

CCCS(=O)(=O)Nc1ccc(F)c(C(=O)c2c[nH]c3ncc(-c4ccc(Cl)cc4)cc23)c1F
active: viability, T/C (compound 10 µM) 7.9% [middle of 4 runs]
6.15 µM [middle of 4 runs]: IC50 (curve of compound)
inactive: viability, T/C (compound 0.0316 µM) 104% [middle of 4 runs] | viability, T/C (compound 0.316 µM) 116% [middle of 4 runs]

CC(Cn1ccc(-c2ccc(C#N)c(Cl)c2)n1)NC(=O)c1cc(C(C)O)[nH]n1 (stereo not drawn) + CC(Nc1ccc2c(c1)OCCn1cc(N3C(=O)OCC3C(F)F)nc1-2)C(N)=O
inactive: viability, T/C [7] 111% | viability, T/C [8] 99.6% | viability, T/C [9] 105% | viability, T/C [10] 101% | viability, T/C [11] 105% | viability, T/C [12] 106% | viability, T/C [13] 113% | viability, T/C [14] 98.6% | viability, T/C [15] 102% | viability, T/C [16] 98.4% | viability, T/C [17] 101% | viability, T/C [18] 111% | viability, T/C [19] 102% | viability, T/C [20] 109% | viability, T/C [21] 101% | viability, T/C [22] 96.2% | viability, T/C [23] 101% | viability, T/C [24] 102% | viability, T/C [25] 98.2% | viability, T/C [26] 100% | viability, T/C [27] 103% | viability, T/C [28] 95.2% | viability, T/C [29] 109% | viability, T/C [30] 95% | viability, T/C [31] 92.6% | viability, T/C [32] 98% | viability, T/C [33] 97.7% | viability, T/C [34] 94.1% | viability, T/C [35] 104% | viability, T/C [36] 91.9% | viability, T/C [37] 87.7% | viability, T/C [38] 91.6% | viability, T/C [39] 91.7% | viability, T/C [40] 86.2% | viability, T/C [41] 90.4% | viability, T/C [42] 92.3%
> 10 µM: IC50 [1] | IC50 [2] | IC50 [3] | IC50 [4] | IC50 [5] | IC50 [6]

C#Cc1c(F)ccc2cc(O)cc(-c3ncc4c(N5CC6CCC(C5)N6)nc(OCC56CCCN5CC(F)C6)nc4c3F)c12 (stereo not drawn) + COc1c(OCCCN2CCOCC2)ccc2c3n(c(=NC(=O)c4cnc(N)nc4)nc12)CCN3
2.44 µM: IC50 [6]
> 10 µM: IC50 [1] | IC50 [2] | IC50 [3] | IC50 [4] | IC50 [5]
inactive: viability, T/C [7] 114% | viability, T/C [8] 108% | viability, T/C [9] 110% | viability, T/C [10] 90% | viability, T/C [11] 89.1% | viability, T/C [12] 81.7% | viability, T/C [13] 122% | viability, T/C [14] 113% | viability, T/C [15] 99.9% | viability, T/C [16] 101% | viability, T/C [17] 100% | viability, T/C [18] 79.5% | viability, T/C [19] 91.6% | viability, T/C [20] 101% | viability, T/C [21] 76% | viability, T/C [22] 81.7% | viability, T/C [23] 85.6% | viability, T/C [24] 74.3% | viability, T/C [25] 64% | viability, T/C [26] 65.7% | viability, T/C [27] 80.8% | viability, T/C [28] 71% | viability, T/C [29] 75.8% | viability, T/C [30] 64.3% | viability, T/C [31] 60.8% | viability, T/C [32] 58% | viability, T/C [33] 67.3% | viability, T/C [34] 62.6% | viability, T/C [35] 49.1% | viability, T/C [36] 47.9% | viability, T/C [37] 54.6% | viability, T/C [38] 66% | viability, T/C [39] 53.9% | viability, T/C [40] 51.2% | viability, T/C [41] 50.9% | viability, T/C [42] 25.8%
